GI50 and TGI data for 37 molecules are collected here from PubChem BioAssay (NCI).

Several values for one entry are separate records, joined by “and”; a condition that tells them apart may be missing. Equal entries are not always repeated.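 Cultured in 96-well plates, cells were exposed to test compound for 48 hours across five concentrations. GI50 = concentration required for 50% inhibition of growth. TGI marks complete inhibition of growth.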 Some results are limits rather than exact numbers.

The assay has as its system MDA-MB-468 breast. As to the kind of experiment: NCI anticancer screen, dose series, 48 h.
For `CCCCCCCC/C=C/CCCCCCCCC1=NCCN1CCO`, the GI50 was 10.3 µM and the TGI is 26.6 µM.

In the case of `CC(=O)N1CC(Nc2ccc(OC(F)(F)F)cc2)=CC1=O`, the GI50 was 0.662 µM and the TGI amounted to 4.74 µM.

With `COc1cc(/C=C/c2cc(/C=C/c3ccc(O)c(OC)c3)n(-c3c(C)cccc3C)c(=O)n2)ccc1O`, the GI50 is 0.835 µM and the TGI was 3.61 µM.

As to `NC(=NCCCOc1ccc(Cl)cc1)Nc1ccc(Cl)cc1`, the GI50 was 1.71 µM and the TGI turned out to be 3.78 µM.

Consider `COc1cc(C)c(-c2ccc(=O)c(OC)cc2C)c(OC)c1OC`, for which the GI50 is > 100 µM and 14 µM; the TGI was greater than 100 µM.

Consider `CCN(CC)c1cc(/C=C/c2ccc(OC)c(OC)c2)nc2cc(F)c(F)cc12`, for which the GI50 is 2.49 µM and the TGI turned out to be 10.3 µM.

Take `Cc1ccc(N2CCN(C3=C(Cl)C(=O)c4ncccc4C3=O)CC2)cc1`: the GI50 is 1.49 µM and the TGI is 3.04 µM.

For the molecule `COc1cc(NCCCCN=C(N)NC(N)=NC(C)C)c2ncccc2c1`, the GI50 is 0.106 µM and the TGI was found to be 0.435 µM.

For `CS(=O)CCCCCN=C=S` (centres undefined), the GI50 is 2.68 µM and the TGI is 9.94 µM.

As to `CC(C)[C@@]12C[C@@H](OC(=O)[C@H]3CO3)[C@@](C)(O1)[C@@H]1CC[C@@H](C)[C@H]1[C@@H]2OC(=O)/C=C/c1ccccc1`, the GI50 was 13.9 µM and the TGI came out at 30.9 µM.

On to `CN(C)c1ccc(/C=C(/NC(=O)c2ccccc2)c2nc3ccc(Cl)cc3[nH]2)cc1`, for which the GI50 was 20.5 µM and the TGI is 70.5 µM.

`COc1ccccc1-n1c(-c2cc(O)ccc2C)cn2c3c(=O)[nH]c(=O)n(C)c3nc12`: the GI50 is 15.6 µM and the TGI is greater than 100 µM.

Turning to `CC(C)CCOc1ccc(-c2n[nH]c(C(F)(F)F)c2-c2cncc(C#N)c2)c(O)c1`, the GI50 is 1.01 µM and the TGI is 4.83 µM.

For the molecule `CCN(CC)CCCNc1cccc2c(SCc3ccccc3)ccnc12`, the GI50 is 1.88 µM and the TGI turned out to be 3.43 µM.

As to `CC(=O)Nc1ccc(Sc2ccc([N+](=O)[O-])o2)cc1`, the GI50 was 0.933 µM and the TGI was found to be 2.81 µM.

For the molecule `CC1/C=C/C=C/C=C/C=C/C=C/C=C/C=C/C(O[C@@H]2O[C@H](C)[C@H](O)[C@@H](O)[C@@H]2N)CC(O)C(C(=O)O)C(O)CC(=O)CC(O)CC(O)CC(O)CC(=O)CCCC(=O)CC(=O)OC1C(C)CC(C)C(O)CC(=O)c1ccc(N)cc1` (some centres undefined), the GI50 is 0.0492 µM and 0.223 µM; the TGI was 0.0989 µM and 0.723 µM.

Take `Cc1cccc(Oc2nccc(-c3c(-c4ccc(F)cc4)ncn3C3CCNCC3)n2)c1C`: the GI50 was 2.95 µM and the TGI worked out at 6.46 µM.

For `N#Cc1c(-c2ccc(Cl)cc2)n(O)c2ccccc12`, the GI50 is 1.63 µM and the TGI turned out to be 4.71 µM.

With `C=C1C[C@](OC)([C@H](O)C(=O)N[C@@H](OC)[C@@H]2C[C@@H](O)C(C)(C)[C@@H](C[C@@H](COC)OC)O2)O[C@H](C)[C@@H]1C`, the GI50 is 0.000941 µM and the TGI stood at 0.00348 µM.

Consider `CN1CCCNc2c(c(=O)c2=O)NCCCN(C)CCCNc2c(c(=O)c2=O)NCCCN(C)CCCNc2c(c(=O)c2=O)NCCCN(C)CCCNc2c(c(=O)c2=O)NCCCN(C)CCCNc2c(c(=O)c2=O)NCCCN(C)CCCNc2c(c(=O)c2=O)NCCCN(C)CCCNc2c(c(=O)c2=O)NCCC1`, for which the GI50 was 2 µM and the TGI amounted to 12 µM.

With `COc1cccc(C2C(C#N)=C(N)Oc3cc(N)ccc32)c1` (centres undefined), the GI50 is 0.282 µM and the TGI is 0.987 µM.

On to `CC(=O)c1ccc(NC(=O)CSc2nnc(-c3cc(-c4ccc(C)cc4)nc4ccccc34)o2)cc1`, for which the GI50 was 3.54 µM and the TGI was greater than 100 µM.

Take `CCCCCCCCCCCCCCCCCC1=NCCN1CS(=O)(=O)O`: the GI50 was 16.1 µM and the TGI worked out at 33.8 µM.

Take `CCC(C)n1cc(C)c2c(C(=O)NCc3c(C)cc(C)[nH]c3=O)cc(Br)cc21` (centres undefined): the GI50 is 22.8 µM and the TGI is greater than 100 µM.

Consider `C=C(C)[C@@H]1CC[C@]2(C)[C@H](C(=O)C=C3[C@@H]4C[C@](C)(C(=O)N5CCN(C)CC5)CC[C@]4(C)CC[C@]32C)[C@@]1(C)CCC#N`, for which the GI50 was 5.92 µM and the TGI is 13.2 µM.

Consider `CCCCCCCC/C=C/CCCCCCCC1=NCC[N+]1(CCO)CCO`, for which the GI50 was 1.78 µM and the TGI stood at 4.56 µM.

`ClC1=C(Cl)C(Cl)=C(Cl)C1=C/C=C/c1ccccc1`: the GI50 is 0.186 µM and the TGI was found to be 0.433 µM.

In the case of `CC(C)(C)c1nc2c(o1)C(=O)c1ccccc1C2=O`, the GI50 was 0.184 µM and the TGI stood at 0.564 µM.

For `O=[N+]([O-])c1ccc(-c2nc(-c3ccccc3)c(-c3ccccc3)n2-c2ccccc2)cc1`, the GI50 was 3.77 µM and the TGI was found to be 12.7 µM.

Turning to `COc1ccc(C(=O)c2ccc(OC)c(OC)c2OC)cc1`, the GI50 is 0.696 µM and the TGI was determined as 9.94 µM.

As to `Cc1nc2sccn2c(=O)c1CCN1CCC(=C(c2ccc(F)cc2)c2ccc(F)cc2)CC1`, the GI50 was 5.05 µM and the TGI turned out to be 19 µM.

In the case of `COc1ccc(Nn2c(SCC(=O)Nc3nc(-c4ccc(Cl)cc4)cs3)nc(C)c2C)cc1`, the GI50 is 0.574 µM and the TGI is 7.73 µM.

`Cc1cc2cc3cc(C)c(N(C)C)cc3nc2cc1N(C)C`: the GI50 was 0.8 µM and the TGI is 9.01 µM.

Consider `COC(=O)c1ccc2c(c1)nc(-c1cc3ccccc3[nH]c1=O)n2-c1cc(C(C)(C)C)[nH]n1`, for which the GI50 is 13.7 µM and the TGI is greater than 100 µM.

Regarding `CCOc1ccc([C@@H]2[C@@H](Oc3ccccc3)C(=O)N2c2cc(OC)c(OC)c(OC)c2)cc1`, the GI50 is 0.0459 µM and the TGI was greater than 100 µM.

`NC(CSC(c1ccccc1)(c1ccccc1)c1ccc(Cl)cc1)C(=O)O` (centres undefined): the GI50 is 0.0819 µM and the TGI is 4.18 µM.

`NCCCNc1nc2ccccc2c2c(=O)c3cc(C(F)(F)F)ccc3sc12`: the GI50 was 1.53 µM and the TGI amounted to 2.99 µM.
